The record followed here is US8546381B2, “Bridged heterocyclic compounds and methods of use” (Medivation Technologies, Inc., priority 2008, dated 2013).

Test [1] has as its target T1, human recombinant serotonin (5-Hydroxytryptamine) 5-HT2B receptor (Homo sapiens, UniProt P41595).
T1 construct: expressed in transfected cells; host or cells: CHO-K1 cells
Kind of test: Serotonin 5-HT2B radioligand binding ([3H]LSD). The note with it: for inhibition at 1 µM: read-out: Serotonin 5-HT2B, inhibition of ligand binding (1 μM). How it is done:
To evaluate in radioligand binding assays the activity of compounds of the invention, human recombinant serotonin (5-Hydroxytryptamine) 5-HT2B receptor expressed in Chinese hamster ovary (CHO-K1) cells (Bonhaus, D. W. et al., Br. J. Pharmacol. 115:622, 1995) in a modified Tris-HCl buffer (50 mM Tris-HCl, pH 7.4, 4 mM CaCl2, 0.1% Ascorbic Acid) was used. Compounds of invention were incubated with 1.2 nM [^3H]Lysergic acid diethylamide (LSD) for 60 minutes at 37° C. Non-specific binding was estimated in the presence of 10 μM Serotonin (5-HT). Receptor proteins were filtered and washed, the filters were then counted to determine [^3H]LSD specifically bound. Compounds were screened at 1 μM or lower, using 1% DMSO as vehicle. Compounds of the invention were tested in this biochemical assay and percent inhibition of specific binding was determined. Biochemical assay results are presented as the percent inhibition of specific binding in Table 4.

The subject of test [2] is rat central imidazoline I2 receptor. Kind of test: Central imidazoline I2 radioligand binding ([3H]Idazoxan). The note with it: compound at 1 μM; inhibition of specific [3H]Idazoxan binding. How it is done: To evaluate in radioligand binding assays the activity of compounds of the invention, rat central imidazoline I2 receptor obtained from Wistar Rat cerebral cortex (Brown, C. M. et al., Br. J. Pharmacol. 99:803, 1990) in a modified Tris-HCl buffer (50 mM Tris-HCl buffer, pH 7.4, 0.5 mM EDTA) was used. Compounds of the invention were incubated with 2 nM [^3H]Idazoxan for 30 minutes at 25° C. Non-specific binding was estimated in the presence of 1 μM Idazoxan. Receptor proteins were filtered and washed, the filters were then counted to determine [^3H]Idazoxan specifically bound. Compounds were screened at 1 μM or lower, using 1% DMSO as vehicle. Compounds of the invention were tested in this biochemical assay and percent inhibition of specific binding was determined.

For test [3], the target named is T2, human recombinant serotonin (5-Hydroxytryptamine) 5-HT7 receptor (Homo sapiens, UniProt P34969).
T2 construct: expressed in transfected cells; host or cells: CHO cells
Kind of test: Serotonin 5-HT7 radioligand binding ([3H]LSD). The note with it: for inhibition at 1 µM: read-out: Serotonin 5-HT7, inhibition of ligand binding (1 μM). The protocol:
To evaluate in radioligand binding assays the activity of compounds of the invention, human recombinant serotonin (5-Hydroxytryptamine) 5-HT7 receptor expressed in Chinese hamster ovary (CHO) cells (Roth, B. L. et al., J. Pharmacol. Exp. Ther. 268:1403, 1994; Shen, Y. et al., J. Biol. Chem. 268:18200, 1993) in a modified Tris-HCl buffer (50 mM Tris-HCl, pH 7.4, 10 mM MgCl2, 0.5 mM EDTA) was used. Compounds of invention were incubated with 5.5 nM [^3H] Lysergic acid diethylamide (LSD) for 2 hours at 25° C. Non-specific binding was estimated in the presence of 10 μM Serotonin (5-HT). Receptor proteins were filtered and washed, the filters were then counted to determine [^3H]LSD specifically bound. Compounds were screened at 1 μM or lower, using 1% DMSO as vehicle. Biochemical assay results are presented as the percent inhibition of specific binding in Table 4.

The target in test [4] is T3, human recombinant adrenergic α2A receptor (Homo sapiens, UniProt P08913).
T3 construct: expressed in transfected cells; host or cells: insect Sf9 cells
T3 sequence (P08913 1-465): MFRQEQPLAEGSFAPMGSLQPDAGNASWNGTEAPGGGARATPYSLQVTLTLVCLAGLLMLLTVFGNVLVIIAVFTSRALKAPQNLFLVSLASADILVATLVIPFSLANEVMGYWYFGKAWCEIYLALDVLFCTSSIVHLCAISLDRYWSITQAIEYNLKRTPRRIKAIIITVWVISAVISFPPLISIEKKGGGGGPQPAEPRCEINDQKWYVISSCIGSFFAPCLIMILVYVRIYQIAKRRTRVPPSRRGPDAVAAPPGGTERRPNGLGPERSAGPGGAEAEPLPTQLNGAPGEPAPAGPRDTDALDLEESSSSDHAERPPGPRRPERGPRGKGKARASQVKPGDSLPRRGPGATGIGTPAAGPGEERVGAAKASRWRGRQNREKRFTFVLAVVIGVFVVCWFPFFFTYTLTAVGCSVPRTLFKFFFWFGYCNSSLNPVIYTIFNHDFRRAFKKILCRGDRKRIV
Kind of test: Adrenergic α2A radioligand binding ([3H]MK-912). As to conditions: for inhibition at 1 µM: read-out: Adrenergic α2A, inhibition of ligand binding (1 μM). How it is done: To evaluate in radioligand binding assays the activity of compounds of the invention, human recombinant adrenergic α2A receptor expressed in insect Sf9 cells (Uhlen S et al. J Pharmacol Exp Ther. 271:1558, 1994) in a modified Tris-HCl buffer (50 mM Tris-HCl, pH 7.4, 12.5 mM MgCl2, 2 mM EDTA) was used. Compounds of invention were incubated with 1 nM [^3H]MK-912 for 60 minutes at 25° C. MK912 is (2S-trans)-1,3,4,5′,6,6′,7,12b-octahydro-1′,3′-dimethyl-spiro[2H-benzofuro[2,3-a]quinolizine-2,4′(1′H) -pyrimidin]-2′(3′H)-one hydrochloride Non-specific binding was estimated in the presence of 10 μM WB-4101 (2-(2,6-Dimethoxyphenoxyethyl)aminomethyl-1,4-benzodioxane hydrochloride). Receptor proteins were filtered and washed, the filters were then counted to determine [^3H]MK-912 specifically bound. Compounds were screened at 1 μM or lower, using 1% DMSO as vehicle. Biochemical assay results are presented as the percent inhibition of specific binding in Table 3.

T2 sequence (P34969 whole entry): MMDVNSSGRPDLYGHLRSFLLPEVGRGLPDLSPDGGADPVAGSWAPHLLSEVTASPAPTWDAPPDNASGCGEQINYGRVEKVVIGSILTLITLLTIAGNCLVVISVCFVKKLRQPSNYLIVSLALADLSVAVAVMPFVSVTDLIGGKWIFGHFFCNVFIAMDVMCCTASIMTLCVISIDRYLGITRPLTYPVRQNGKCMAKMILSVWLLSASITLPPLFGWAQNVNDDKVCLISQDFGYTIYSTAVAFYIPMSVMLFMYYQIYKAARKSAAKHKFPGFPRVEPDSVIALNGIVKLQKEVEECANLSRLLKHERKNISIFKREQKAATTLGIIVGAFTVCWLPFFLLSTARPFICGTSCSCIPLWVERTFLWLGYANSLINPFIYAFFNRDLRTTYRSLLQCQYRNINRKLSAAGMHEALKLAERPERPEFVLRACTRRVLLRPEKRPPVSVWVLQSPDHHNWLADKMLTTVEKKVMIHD
T1 sequence (P41595 whole entry): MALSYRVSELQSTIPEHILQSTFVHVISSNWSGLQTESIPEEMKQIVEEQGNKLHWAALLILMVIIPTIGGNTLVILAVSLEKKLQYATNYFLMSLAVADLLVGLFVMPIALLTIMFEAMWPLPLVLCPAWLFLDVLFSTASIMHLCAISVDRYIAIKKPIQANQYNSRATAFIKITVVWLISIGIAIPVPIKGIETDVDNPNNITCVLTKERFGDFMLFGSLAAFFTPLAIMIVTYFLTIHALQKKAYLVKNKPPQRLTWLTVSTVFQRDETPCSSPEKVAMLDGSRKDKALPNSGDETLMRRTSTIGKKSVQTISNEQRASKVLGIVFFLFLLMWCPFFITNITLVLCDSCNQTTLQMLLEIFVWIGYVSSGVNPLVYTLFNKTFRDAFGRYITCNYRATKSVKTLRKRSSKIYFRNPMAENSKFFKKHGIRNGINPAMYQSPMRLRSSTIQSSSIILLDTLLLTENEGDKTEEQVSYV

On to `Cc1ccc2c(c1)c1c(n2CCc2ccccc2)CC2CCC1N2C` (stereo not shown) [Compound 2], for which the inhibition (commonly the drop in the measured response relative to a control, in per cent) at 0.03 µM is 37% in test [1] (read-out: Serotonin 5-HT2B, inhibition of ligand binding (0.03 μM)) and 81% in test [3] (read-out: Serotonin 5-HT7, inhibition of ligand binding (0.03 μM)). Besides, the inhibition at 0.3 µM in test [1] (read-out: Serotonin 5-HT2B, inhibition of ligand binding (0.3 μM)) came to 88%. In addition, the results for the inhibition at 1 µM in test [1], in test [3] and in test [4] were 71%, 98% and 100%, respectively. The “Imidazoline I2 Central (1 μM), Percentage Inhibition” value in test [2] amounted to 70%. In addition, the inhibition at 0.003 µM in test [3] (read-out: Serotonin 5-HT7, inhibition of ligand binding (3.0 nM)) was 38%. Moreover, the inhibition at 0.01 µM in test [4] (10.0 nM, read-out: Adrenergic α2A, inhibition of ligand binding (10.0 nM)) was determined as 47%. For the same compound, the inhibition at 0.1 µM in test [4] (0.1 μM, read-out: Adrenergic α2A, inhibition of ligand binding (0.1 μM)) came to 88%.
As to `CN1C2CCC1c1c(n(CCC(=O)N3CCCC3)c3ccc(Cl)cc13)C2` (stereo not shown) [Compound 5], the “Imidazoline I2 Central (1 μM), Percentage Inhibition” value in test [2] is 25%. The inhibition at 1 µM in test [4] was 4%.
The corresponding values for `CN1C2CCC1c1c(n(CCC(=O)N3CCOCC3)c3ccc(Cl)cc13)C2` (stereo not shown) [Compound 13] are −7% and 2%.
Regarding `CN1C2CCC1c1c(n(CCc3ccc(Cl)cc3)c3ccc(F)cc13)C2` (stereo not shown) [Compound 33], the “Imidazoline I2 Central (1 μM), Percentage Inhibition” value in test [2] is listed as 6%. For the same compound, the inhibition at 1 µM in test [4] was determined as 69%.
The corresponding values for `CN1C2CCC1c1c(n(CCc3ccc(F)cc3)c3ccc(F)cc13)C2` (stereo not shown) [Compound 35] are 33% and 93%.
For `Cc1ccc2c(c1)c1c(n2CCc2ccccc2)CC2CCCC1N2C` (stereo not shown) [Compound 56], the inhibition at 1 µM in test [1] was -11%; in test [3], 92%; in test [4], 92%. Besides, the “Imidazoline I2 Central (1 μM), Percentage Inhibition” value in test [2] amounted to 27%.
As to `CN1C2CCC1c1c(n(CCc3ccc(F)cc3)c3ccc(Cl)cc13)C2` (stereo not shown) [Compound 57], the inhibition at 1 µM in test [1] amounted to 48%; in test [3], 94%; in test [4], 96%. Further, in test [2], the “Imidazoline I2 Central (1 μM), Percentage Inhibition” value was 8%.
The corresponding values for `CN1C2CCC1c1c(n(CCc3ccc(Cl)cc3)c3ccc(Cl)cc13)C2` (stereo not shown) [Compound 58] are 32%, 93%, 98% and 8%.
On to `CN1C2CCC1c1c(n(CC(=O)N3CCOCC3)c3ccc(Cl)cc13)C2` (stereo not shown) [Compound 59, 2-(2-chloro-11-methyl-5,6,7,8,9,10-Hexahydro-7,10-iminocyclohept[b]indol-5-yl)-1-morpholinoethanone], for which, in test [2], the “Imidazoline I2 Central (1 μM), Percentage Inhibition” value is reported as −8%. In test [4], the inhibition at 1 µM was 17%.
In the case of `CN1C2CCC1c1c(n(CC(=O)N3CCCC3)c3ccc(Cl)cc13)C2` (stereo not shown) [Compound 60], the “Imidazoline I2 Central (1 μM), Percentage Inhibition” value in test [2] was found to be 1%. The inhibition at 1 µM in test [4] was found to be 2%.
For the compound `Cc1ccc(CCn2c3c(c4cc(Cl)ccc42)C2CCC(C3)N2C)cc1` (stereo not shown) [Compound 61], the “Imidazoline I2 Central (1 μM), Percentage Inhibition” value in test [2] was 22%. Besides, the inhibition at 1 µM in test [4] was 97%.
As to `Cc1ccc2c(c1)c1c(n2CCc2ccc(F)cc2)CC2CCC1N2C` (stereo not shown) [Compound 62], the “Imidazoline I2 Central (1 μM), Percentage Inhibition” value in test [2] amounted to 52%. Further, the inhibition at 1 µM in test [4] stood at 96%.
In the case of `Cc1ccc(C#Cn2c3c(c4cc(Cl)ccc42)C2CCC(C3)N2C)cn1` (stereo not shown) [Compound 139], the inhibition at 1 µM is 97% in test [3] and 93% in test [4].
The corresponding values for `Cc1ccc2c(c1)c1c(n2C#Cc2ccc(F)cc2)CC2CCC1N2C` (stereo not shown) [Compound 141] are 48% and 61%.
For `CN1C2CCC1c1c(n(C#Cc3ccc(Cl)cc3)c3ccc(Cl)cc13)C2` (stereo not shown) [Compound 142], in that order: 57% and 82%.
On to `COc1ccc(C(C)(O)Cn2c3c(c4cc(Cl)ccc42)C2CCC(C3)N2C)cc1F` (stereo not shown) [Compound 160], for which the values for the inhibition at 1 µM in test [3] and in test [4] were 75% and 63%, respectively.
The corresponding values for `COc1ccc(C(C)(O)Cn2c3c(c4cc(C)ccc42)C2CCC(C3)N2C)cc1F` (stereo not shown) [Compound 161] are 69% and 55%.
The corresponding values for `Cc1ccc2c(c1)c1c(n2C(=O)Cc2ccc(Cl)cc2)CC2CCC1N2C` (stereo not shown) [Compound 162] are 43% and 59%.
For `C/C(=C\n1c2c(c3cc(C)ccc31)C1CCC(C2)N1C)c1ccc(Cl)cc1Cl` (stereo not shown) [Compound 163], in that order: 87% and 95%.
